Source: PMC4523496 (Molecular psychiatry, 2015)

Columns and labels:
[1] = test system: cocaine conditioned place preference; test: Conditioned place preference; assay type: in vivo, rat; settings: tested drug-free; cocaine 10 mg/kg i.p.
[2] = test system: isolated neonatal microglial cells; test: IL-1β mRNA expression in isolated neonatal microglial cell culture; settings: neonatal microglia; (+)-naloxone 1, 10, 100 µM co-treatment
[3] = assay type: in vivo, rat; settings: pretreatment […] s.c. twice; cocaine 10 mg/kg i.p.; hippocampus
[4] = test system: IL-1β mRNA in VTA, NAc, vmPFC; test: IL-1β mRNA in brain micro-punches after systemic drug; assay type: in vivo, rat; settings: (+)-naloxone […] s.c. twice; 30 min and 2 h after cocaine 10 mg/kg
[5] = test system: extracellular dopamine in the NAc; test: In vivo microdialysis of NAc shell dopamine; set-up: species or system rat; settings: for effect on basal NAc dopamine levels: antagonist alone; for effect on intra-VTA neurotensin-induced elevation of NAc dopamine: control for non-specific disruption of neuronal responsiveness; for extracellular NAc dopamine, compound alone: cocaine 10 mg/kg systemic, neurotensin 10 nMol or LPS 10 ng intra-VTA; for increase of NAc dopamine concentrations: intra-VTA LPS vs systemic cocaine
[6] = test system: cocaine self-administration; test: Rat self-administration; assay type: in vivo; settings: pre-session (+)-naltrexone s.c.
MD-2 [7] = biological target: T1, MD-2 (Homo sapiens, UniProt Q9Y6Y9); test: Biophysical ELISA binding assays
T1 sequence (Q9Y6Y9 19-160): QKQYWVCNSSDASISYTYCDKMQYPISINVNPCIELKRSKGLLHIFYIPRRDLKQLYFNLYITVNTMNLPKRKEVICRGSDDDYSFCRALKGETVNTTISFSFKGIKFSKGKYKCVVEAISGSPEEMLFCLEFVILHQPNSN

MD-2 [8] = biological target: T1, MD-2; test: Bis-ANS displacement assay; assay type: binding

Compound: C=CCN1CC[C@]23c4c5ccc(O)c4O[C@H]2C(=O)CC[C@]3(O)[C@H]1C5 [(+)-Naloxone]
- conditioned place preference, compound alone [1]: produced no appetitive or aversive CPP
- effect on cocaine-induced upregulation of IL-1β mRNA [2]: blocked
- effect on brain cocaine concentrations [3]: not altered
- effect on cocaine-induced increases of intra-VTA IL1β mRNA [4]: blocked
- effect on basal NAc dopamine levels [5]: did not influence basal dopamine levels
- effect on intra-VTA neurotensin-induced elevation of NAc dopamine [5]: unaltered

Compound: O=C1CC[C@]2(O)[C@@H]3Cc4ccc(O)c5c4[C@]2(CCN3CC2CC2)[C@@H]1O5 [(+)-naltrexone]
- effect on food-maintained responding [6]: failed to suppress responding to food
- effect on responding for cocaine (self-administration) ([6]; fixed-ratio dose-response): suppressed responding for cocaine at the peak cocaine doses

Compound: COC(=O)[C@H]1[C@@H](OC(=O)c2ccccc2)C[C@@H]2CC[C@H]1N2C [Cocaine]
- conditioned place preference, compound alone [1]: produces place preference
- binding to human MD-2 (ELISA) (MD-2 [7]; aptamer-immobilized cocaine): bound to human MD-2 in a concentration-dependent manner
- extracellular NAc dopamine, compound alone [5]: robust increases in extracellular NAc dopamine
- increase of NAc dopamine concentrations [5]: 300%
- Ki (MD-2 [8]): 23.9 ± 5.9 µM

Compound: CN(C)c1ccc(O)c2c1C[C@H]1C[C@H]3[C@H](N(C)C)C(O)=C(C(N)=O)C(=O)[C@@]3(O)C(O)=C1C2=O [minocycline]
- conditioned place preference, compound alone [1]: neither water nor minocycline altered place preference

Compound: IL1ra: IL-1 receptor antagonist
- effect on basal NAc dopamine levels [5]: did not alter basal DA levels in the NAc
- effect on intra-VTA neurotensin-induced elevation of NAc dopamine [5]: did not alter neurotensin-induced dopamine elevations in the NAc

Compound: lipopolysaccharide [LPS]
- competition with cocaine for binding to MD-2 (ELISA) (MD-2 [7]; varying concentrations of LPS added): displaced cocaine binding to MD-2
- extracellular NAc dopamine, compound alone [5]: increased
- increase of NAc dopamine concentrations [5]: < 200%

Compound: neurotensin
- extracellular NAc dopamine, compound alone [5]: induced increased NAc dopamine
